Data set [1] in a line: Mouse pharmacokinetic study, single oral dose, plasma by LC-MS/MS. The conditions noted are these: for AUClast / Cmax / T1/2 / Tmax: 300 mg/kg single oral dose, plasma, 300 mg/kg. It counts as in vivo, female NOD/SCID mice. Here is the method: Mouse pharmacokinetic (PK) studies were conducted using Crystalline Form A of 6-(4-cyclopropyl-6-methoxypyrimidin-5-yl)-1-(4-(1-isopropyl-4-(trifluoromethyl)-1H-imidazol-2-yl)benzyl)-1H-pyrazolo[3,4-d]pyrimidine, as disclosed herein and Crystalline Form 2 of a gentisic acid co-crystal of 6-(4-cyclopropyl-6-methoxypyrimidin-5-yl)-1-(4-(1-isopropyl-4-(trifluoromethyl)-1H-imidazol-2-yl)benzyl)-1H-pyrazolo[3,4-d]pyrimidine, as disclosed herein.
The PK studies consisted of single dose oral exposure studies, which were conducted in female NOD/SCID mice (approximately 6 to 8 weeks, and 20-30 g at the time of study) using a compound dose of 300 mg/kg and a dosing volume of 10 mL/kg. The mice were fasted overnight prior to dosing. Animals had free access to food and water post-dosing.
Blood was sampled serially from the dorsal metatarsal vein at pre-dose, 0.25, 0.5, 1, 2, 4, 8, 24, 48 (crystalline Form 2 only), and 72 hours (crystalline Form 2 only) post PO dosing. Approximately 0.03 mL blood was collected at each time point and centrifuged at 4000 G for 5 minutes at 4° C. to provide plasma. The plasma samples were then stored in a freezer at −75±15° C. prior to LC-MS/MS analysis.
Concentrations of each compound in the plasma samples were then analyzed using an LC-MS/MS method. WinNonlin (Phoenix™, version 6.1) or other similar software was used for PK calculations. The following PK parameters were calculated, whenever possible from the plasma concentration versus time data: Cmax, Tmax, T1/2, AUCinf, and AUClast. The PK data were described using descriptive statistics such as mean with standard deviation.

Data set [2] can be described thus: Distribution in rat brain and plasma after single oral dose. It counts as in vivo, Sprague Dawley rats. Conditions: 100 mg/kg single oral dose; for AUC0-∞: brain. Here is the method:
Male and female Sprague Dawley rats were purchased from Beijing Anikeeper Biotech Co, Ltd. Animals were habituated to the environment prior to study initiation. Rats were dosed with single dose of 100 mg/kg crystalline Form 2 via oral gavage. The rats were fasted overnight prior to dosing. Animals had access to food from 2 hours post dose and free access to water throughout the study. Approximately 0.2 mL of blood was sampled via jugular vein at each time point and centrifuged at 4000G for 5 minutes at 4° C. to provide plasma. Samples were then stored in a freezer at −75±15° C. prior to LC-MS/MS analysis. Whole brain was collected after hemoperfusion and snap frozen on dry ice prior to storage at −75±15° C. Prior to LC-MS/MS analysis whole brains were weighed and homogenized with water by tissue weight (g) to water volume (ml) ratio 1:3 before analysis. Actual concentration is the measured value multiplied by the dilution factor. The PK data were described using descriptive statistics such as mean with standard deviation.

Data set [3] is described as follows: Distribution in mouse brain and plasma after repeated oral dosing. Format: in vivo, female NOD SCID mice. Conditions: 100 or 300 mg/kg oral for 28 days. Here is the method: Female NOD SCID mice of an age between 6-8 weeks and a body weight range of 18-22 g were purchased from Beijing Anikeeper Biotech Co, Ltd. Animals were habituated to the environment for at least 7 days prior to study initiation. Mice were dosed with Crystalline Form 2 at either 100 mg/kg or 300 mg/kg dose levels via oral gavage for 28 days. After 24 hours following 27 doses of compound, three mice were euthanized via CO2. After four hours following 28 doses of compound, three mice were euthanized via CO2. At each time point the whole brain was collected. In addition, approximately 0.03 mL of blood was collected at each time point and centrifuged at 4000G for 5 minutes at 4° C. to provide plasma. Samples were then stored in a freezer at −75±15° C. prior to LC-MS/MS analysis. Concentrations of compound in brain homogenates (ng/g) and plasma (ng/ml) were then analyzed using an LC-MS/MS method. The PK data were described using descriptive statistics such as mean with standard deviation.

The record followed here is patent US20250161306A1, “UBIQUITIN-SPECIFIC-PROCESSING PROTEASE 1 (USP1) INHIBITORS FOR THE TREATMENT OF SOLID TUMORS” (KSQ Therapeutics, Inc., priority 2022, published 2025).

Take `COc1ncnc(C2CC2)c1-c1ncc2cnn(Cc3ccc(-c4nc(C(F)(F)F)cn4C(C)C)cc3)c2n1` [Crystalline Form 2, 6-(4-cyclopropyl-6-methoxypyrimidin-5-yl)-1-(4-(1-isopropyl-4-(trifluoromethyl)-1H-imidazol-2-yl)benzyl)-1H-pyrazolo[3,4-d]pyrimidine]: the AUClast turned out to be 752.45 µg·h/mL in data set [1] (Mean), 827.348 µg·h/mL in data set [1] (Mouse 7), 835.713 µg·h/mL in data set [1] (Mouse 8) and 594.288 µg·h/mL in data set [1] (Mouse 9). The Cmax (commonly the peak of the concentration-time curve) in data set [1] (Mean) is 28900 ng/mL; in data set [1] (Mouse 7), 28800 ng/mL; in data set [1] (Mouse 8), 28900 ng/mL; in data set [1] (Mouse 9), 29000 ng/mL. Further, the T1/2 in data set [1] (Mean) came out at 4.17 h; in data set [1] (Mouse 8), 4.22 h; in data set [1] (Mouse 9), 4.27 h. Also, the Tmax – broadly, the time at which the peak concentration occurs – in data set [1] (Mean) is 10.7 h; in data set [1] (Mouse 8), 12.0 h; in data set [1] (Mouse 9) it was 12.0 h. In data set [1] (about 300 mg/kg), the “mouse oral exposure levels compared to crystalline Form A (freebase)” value is “higher exposure levels”. In addition, the “drug level in the brain tissue” value is “measurable drug level” in data set [2] (male and female rats); “measurable drug level” in data set [3]. The results for the “AUC0-∞” value in data set [2] (Female rats) and in data set [2] (Male rats) were 120933 ng·h/g and 60596 ng·h/g, respectively. Moreover, the “accumulation of the drug in the brain after repeated dosing” value in data set [3] is given as “no apparent accumulation”.
As for `COc1ncnc(C2CC2)c1-c1ncc2cnn(Cc3ccc(-c4nc(C(F)(F)F)cn4C(C)C)cc3)c2n1` [Crystalline Form A, 6-(4-cyclopropyl-6-methoxypyrimidin-5-yl)-1-(4-(1-isopropyl-4-(trifluoromethyl)-1H-imidazol-2-yl)benzyl)-1H-pyrazolo[3,4-d]pyrimidine], in data set [1] (Mean), the AUClast was 60.663 µg·h/mL, the Cmax is listed as 3697 ng/mL, the T1/2 was 12.7 h and the Tmax was 5.33 h. In data set [1] (Mouse 7), this compound came in with an AUClast of 72.653 µg·h/mL and a Cmax of 4450 ng/mL. In addition, in data set [1] (Mouse 8), the AUClast is 40.678 µg·h/mL, the Cmax worked out at 2890 ng/mL and the Tmax worked out at 4.00 h. Moreover, in data set [1] (Mouse 9), the AUClast stood at 68.658 µg·h/mL, the Cmax was 3750 ng/mL, the T1/2 is 18.6 h and the Tmax worked out at 4.00 h.
